Assay results as given in ChEMBL document CHEMBL4190365, “Synthesis and antiproliferative properties of new hydrophilic esters of triterpenic acids” (Eur J Med Chem, 2017).

Experiments:
Type in all cases: functional, cell-based
[1] = test system: G-361; assay: Cytotoxicity in human G361 cells assessed as reduction in cell viability incubated for 72 hrs by calcein AM cytotoxicity assay
[2] = test system: MCF7; assay: Cytotoxicity in human MCF7 cells assessed as reduction in cell viability incubated for 72 hrs by calcein AM cytotoxicity assay
[3] = test system: BJ; assay: Cytotoxicity in human BJ cells assessed as reduction in cell viability incubated for 72 hrs by calcein AM cytotoxicity assay
[4] = test system: CCRF-CEM; assay: Cytotoxicity in human CEM cells assessed as reduction in cell viability incubated for 72 hrs by calcein AM cytotoxicity assay
[5] = test system: HeLa; assay: Cytotoxicity in human HeLa cells assessed as reduction in cell viability incubated for 72 hrs by calcein AM cytotoxicity assay

Row | Structure (SMILES) | IC50 ([1]; Homo sapiens, G-361, 72 h) [µM] | IC50 ([2]; Homo sapiens, MCF7, 72 h) [µM] | IC50 ([3]; Homo sapiens, BJ, 72 h) [µM] | IC50 ([4]; Homo sapiens, CCRF-CEM, 72 h) [µM] | IC50 ([5]; Homo sapiens, HeLa, 72 h) [µM] | IC50 ([4]; ccrf-cem) [µM] | IC50 ([1]; g-361) [µM] | IC50 ([2]; mcf7) [µM] | IC50 ([3]; bj) [µM] | IC50 ([5]; hela) [µM]
1 | CC(=O)O[C@H]1CC[C@]2(C)[C@H]3CC[C@@H]4C5=C(C(C)C)C(=O)C[C@]5(C(=O)OCCN5CCCC5)CC[C@@]4(C)[C@]3(C)CC[C@H]2C1(C)C | 6.5 | 7.3 | 19.1 | 13.3 | 7.7 | – | – | – | – | –
2 | CC(=O)OC[C@@]1(C(=O)OCC(=O)OCc2ccccc2)CC[C@]2(C)[C@H](CC[C@@H]3[C@@]4(C)CC[C@H](OC(C)=O)C(C)(C)[C@@H]4CC[C@]32C)C1=O | > 50 | > 50 | > 50 | > 50 | > 50 | – | – | – | – | –
3 | C=C(C)[C@@H]1CC[C@]2(C(=O)OCCOCCOC)CC[C@]3(C)[C@H](CC[C@@H]4[C@@]5(C)CC[C@H](O)C(C)(C)[C@@H]5CC[C@]43C)[C@@H]12 | 26.9 | 36.4 | > 50 | 30.7 | 14.5 | – | – | – | – | –
4 | C=C(C)[C@@H]1CC[C@]2(C(=O)OCCN3CCCC3)CC[C@]3(C)[C@H](CC[C@@H]4[C@@]5(C)CC[C@H](O)C(C)(C)[C@@H]5CC[C@]43C)[C@@H]12 | 11.6 | 19.9 | 23.1 | – | 8.5 | 5 | – | – | – | –
5 | CC(=O)OC[C@@]1(C(=O)OCCBr)CC[C@]2(C)[C@H](CC[C@@H]3[C@@]4(C)CC[C@H](OC(C)=O)C(C)(C)[C@@H]4CC[C@]32C)C1=O | > 50 | > 50 | > 50 | > 50 | > 50 | – | – | – | – | –
6 | C=C(C)[C@@H]1CC[C@]2(C(=O)O[C@@H]3O[C@H](CO)[C@H](O)[C@H](O)[C@H]3O)CC[C@]3(C)[C@H](CC[C@@H]4[C@@]5(C)CC[C@H](O)C(C)(C)[C@@H]5CC[C@]43C)[C@@H]12 | > 50 | > 50 | > 50 | > 50 | > 50 | – | – | – | – | –
7 | CC(=O)O[C@H]1CC[C@]2(C)[C@H]3CC[C@@H]4C5=C(C(C)C)C(=O)C[C@]5(C(=O)O[C@@H]5O[C@H](CO)[C@@H](O)[C@H](O)[C@H]5O)CC[C@@]4(C)[C@]3(C)CC[C@H]2C1(C)C | 6.7 | 6.6 | 48.2 | 12.2 | 9.3 | – | – | – | – | –
8 | CC(C)[C@@H]1CC[C@]2(C(=O)O[C@@H]3O[C@H](CO)[C@H](O)[C@H](O)[C@H]3O)CC[C@]3(C)[C@H](CC[C@@H]4[C@@]5(C)CC[C@H](O)C(C)(C)[C@@H]5CC[C@]43C)[C@@H]12 | > 50 | > 50 | > 50 | > 50 | > 50 | – | – | – | – | –
9 | C=C(C)[C@@H]1CC[C@]2(C(=O)OCCN3CCCCC3)CC[C@]3(C)[C@H](CC[C@@H]4[C@@]5(C)CC[C@H](O)C(C)(C)[C@@H]5CC[C@]43C)[C@@H]12 | 28.6 | 32.8 | 43.2 | – | 23.8 | 26.2 | – | – | – | –
10 | CC(=O)O[C@H]1CC[C@]2(C)[C@H]3CC[C@@H]4C5=C(C(C)C)C(=O)C[C@]5(C(=O)OCCN5CCCCC5)CC[C@@]4(C)[C@]3(C)CC[C@H]2C1(C)C | – | – | – | 21.2 | – | – | 7.2 | 5.8 | 44.6 | 9.1
11 | C=C(C)[C@@H]1CC[C@]2(C(=O)OCCN3CCOCC3)CC[C@]3(C)[C@H](CC[C@@H]4[C@@]5(C)CC[C@H](O)C(C)(C)[C@@H]5CC[C@]43C)[C@@H]12 [listing 1 of 2 here] | – | – | – | > 50 | – | – | – | – | – | > 50
12 | C=C(C)[C@@H]1CC[C@]2(C(=O)O[C@@H]3O[C@H](CO)[C@@H](O)[C@H](O)[C@H]3O)CC[C@]3(C)[C@H](CC[C@@H]4[C@@]5(C)CC[C@H](O)C(C)(C)[C@@H]5CC[C@]43C)[C@@H]12 | > 50 | > 50 | > 50 | > 50 | > 50 | – | – | – | – | –
13 | CC(=O)O[C@H]1CC[C@]2(C)[C@H]3CC[C@@H]4C5=C(C(C)C)C(=O)C[C@]5(C(=O)O[C@@H]5O[C@H](CO)[C@H](O)[C@H](O)[C@H]5O)CC[C@@]4(C)[C@]3(C)CC[C@H]2C1(C)C | 42.7 | 37 | 48.2 | 18.8 | 38.8 | – | – | – | – | –
14 | C=C(C)[C@@H]1CC[C@]2(C(=O)OCCN3CCOCC3)CC[C@]3(C)[C@H](CC[C@@H]4[C@@]5(C)CC[C@H](O)C(C)(C)[C@@H]5CC[C@]43C)[C@@H]12 [listing 2 of 2 here] | > 50 | > 50 | > 50 | – | 50 | – | – | – | – | –
15 | CC(C)[C@@H]1CC[C@]2(C(=O)OCCN3CCCCC3)CC[C@]3(C)[C@H](CC[C@@H]4[C@@]5(C)CC[C@H](O)C(C)(C)[C@@H]5CC[C@]43C)[C@@H]12 | – | – | – | 26.7 | – | – | 29.9 | 26.1 | 46.5 | –
